The values below are quoted from earlier work in article PMC8127065 (Journal of controlled release : official journal of the …, 2021).

With `C=CC[C@@H]1/C=C(\C)C[C@H](C)C[C@H](OC)[C@H]2O[C@@](O)(C(=O)C(=O)N3CCCC[C@H]3C(=O)O[C@H](/C(C)=C/[C@@H]3CC[C@@H](O)[C@H](OC)C3)[C@H](C)[C@@H](O)CC1=O)[C@H](C)C[C@@H]2OC` [Tacrolimus], the water solubility was 1 to 2 µg/mL.
